Assay in all cases: DTP human tumour cell line panel, 48 h
The subject of test [1] is COLO 205 colon.
For test [2], the system named is HCT-116 colon.
The subject of test [3] is HOP-62 NSCLC.
For test [4], the system named is HS 578T breast.
Test [5] relates to NCI-H460 lung.
The test system of test [6] is NCI-H522 lung.
Test [7] has as its system SF-268 CNS.
In test [8] the test system is TK-10 renal.
The subject of test [9] is UACC-62 melanoma.
In test [10] the test system is OVCAR-4 ovarian.
The subject of test [11] is SK-MEL-2 melanoma.
The test system of test [12] is U251 CNS.
Test [13] relates to A498 renal.

Data on twelve molecules can be found in PubChem BioAssay (NCI).

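Method: 48-hour compound exposure of cells in 96-well plates, five concentrations, linear interpolation of endpoints. At the TGI there is no net growth.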

The term TGI denotes the concentration at which net growth stops. The low end stands for more potent growth arrest, the high end for less potent growth arrest.

Regarding `CC12ON=C(c3ccccc3)N1C=CN1C(c3ccccc3)=NOC12` (centres undefined), the TGI in test [1], in test [2], in [3], in [4], in test [5] and in test [6] was over 100 µM in each case. In addition, the TGI in test [7], in [8] and in test [9] was over 100 µM in each case.

Regarding `CC1=C(C(=O)OC(C)C)C(c2ccccc2[N+](=O)[O-])C(C(=O)OC(CO[N+](=O)[O-])CO[N+](=O)[O-])=C(C)N1` (centres undefined), the TGI in test [1] was 38.8 µM; in [2], 11.4 µM; in test [3], 11.2 µM; in test [4], 25.8 µM; in test [5], 16 µM; in [6] it was 8.45 µM. For the same molecule, the TGI in test [10] is 22.4 µM; in [7], 16.8 µM; in [11] it was 9.64 µM; in test [8], over 100 µM; in test [12], 13.4 µM; in test [9], 8.14 µM.

Regarding `Cc1ccc(/C=N/Nc2ncccn2)s1`, the concentration for total growth inhibition (TGI) in test [1], in test [2], in test [3], in test [4], in test [6] and in test [10] was over 100 µM throughout. Also, the TGI in [7], in test [11], in test [8], in test [12] and in test [9] was over 100 µM throughout.

Consider `CNC(=O)CN1CC(=O)N(C)C(=O)C1`, for which the TGI in test [1], in test [3], in test [6], in [10], in test [11] and in [8] was over 100 µM in each case. In addition, the concentration for total growth inhibition (TGI) in test [12] and in [9] was over 100 µM throughout.

With `CCN(CC)CCNc1ccc(C)c2sc3ccc(O)cc3c(=O)c12`, the total growth inhibition concentration (TGI) in test [13] was found to be 4.27 µM; in test [1], 3.27 µM; in test [2], 2.56 µM; in test [3], 1.66 µM; in [5] it was 1.37 µM; in test [6], 2.7 µM. For the same molecule, the TGI in [10] worked out at 6.12 µM; in [7], 7.93 µM; in [11], 3.24 µM; in test [8], 9.95 µM; in test [12], 2.44 µM; in test [9], 2.21 µM.

On to `C=C1C(=O)OC2/C=C(\C)C(O)/C=C\C(C)(O)CC(OC(=O)/C(C)=C/C)C12` (centres undefined), for which the TGI is over 100 µM in test [13]; 28.9 µM in [1]; 30 µM in test [2]; over 100 µM in [3]; over 100 µM in test [5]; 26.2 µM in test [6]. In addition, the concentration for total growth inhibition (TGI) is over 100 µM in [10]; over 100 µM in test [7]; 48.8 µM in test [11]; over 100 µM in test [8]; over 100 µM in test [12]; 32.6 µM in [9].

For the molecule `COc1ccc2c(c1)c1cc(OC)ccc1n2CCCCOc1ccc(-c2c3ccccc3c(-c3ccc(OCCCCn4c5ccc(OC)cc5c5cc(OC)ccc54)cc3)c3ccccc23)cc1`, the TGI in test [1], in test [2], in test [3], in test [6], in test [10] and in [7] was over 100 µM in each case. The total growth inhibition concentration (TGI) in test [11], in test [8] and in [9] was over 100 µM in each case.

As to `COc1cc2c(cc1OC)C(Cl)C(c1cc(OC)c(OC)c(OC)c1)=C2Cl` (centres undefined), the total growth inhibition concentration (TGI) in test [13] came to 61.1 µM; in test [1] it was 32.9 µM; in [5] it was 32.4 µM; in [6], 23 µM; in test [7] it was 55.7 µM; in test [11], 34.1 µM. The concentration for total growth inhibition (TGI) turned out to be 62.2 µM in test [8], 33 µM in test [12] and 28.9 µM in [9].

Consider `Cc1ccc2[nH]c3c(C)c4ccncc4c(C)c3c2c1`, for which the TGI in test [13] was determined as 2.91 µM; in test [1], 2.23 µM; in [2] it was 1.61 µM; in test [3], 3.24 µM; in [5], 1.77 µM; in [6], 2.28 µM. The TGI amounted to 2.56 µM in test [10]; 2.11 µM in test [7]; 2.63 µM in test [11]; 14.2 µM in test [8]; 2.46 µM in test [12]; 3.26 µM in [9].

As for `NNC(=O)c1n[nH]nc1SSc1n[nH]nc1C(=O)NN`, the TGI in [1], in [2], in [3], in [4], in test [5] and in test [6] was over 100 µM in each case. Also, the concentration for total growth inhibition (TGI) in test [10], in test [7], in [11], in test [8], in [12] and in test [9] was over 100 µM throughout.

For `CN1CCN(c2ccc3[nH]c(C4=C(O)c5nc(CO)n(C)c5C(=O)C4=O)nc3n2)CC1`, the TGI in test [1], in [2], in [3], in test [4], in [5] and in [6] was over 100 µM each time. Besides, the concentration for total growth inhibition (TGI) in test [10], in [7], in [11], in test [12] and in [9] was over 100 µM each time.

For the molecule `CCOC(=O)c1c(SCCO)n(-c2ccccc2)c(=S)n(-c2ccccc2)c1=O`, the total growth inhibition concentration (TGI) in test [1], in [2], in test [3], in test [4], in test [5] and in test [6] was over 100 µM each time. In addition, the concentration for total growth inhibition (TGI) in test [10], in test [7], in [11], in test [8], in test [12] and in test [9] was over 100 µM each time.
